Measurements from US6620828B2, “Thiazole compounds and pharmaceutical compositions for inhibiting protein kinases and methods for their use” (Agouron Pharmaceuticals, Inc., priority 1999, dated 2003).
Where two headings read alike, the source gives them in different places.

System: human umbilical vein endothelial cells (HUVEC)
Test: HUVEC proliferation assay
Format: cell-based
Conditions: Homo sapiens, HUVEC; for inhibition at 0.001 µM: 1 nM; for inhibition at 0.01 µM: 10 nM, read-out: % inhibition @ 10 nM
Procedure, shortened: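 Exponentially growing HUVEC were serum-starved 24 h (F12K + 1% FBS), pre-treated 1 h with compound (0.1% DMSO final), then stimulated with 6 ng/ml VEGF. Proliferation was read 72 h later by MTT reduction (A595). IC50 came from seven 0.5-log concentrations in triplicate; screens gave % inhibition relative to VEGF-only and starved wells.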

[1] = Table II screening results, crude combinatorial amide library
[2] = table following Table II (untitled), crude combinatorial library

## CNC(=O)Nc1nc(N)c(-c2nc(-c3cccc(NC(=O)c4ccccc4)c3)cs2)s1
[1]
  inhibition at 0.001 µM: -8%
  inhibition at 0.01 µM: -40%

## CNC(=O)Nc1nc(N)c(-c2nc(-c3cccc(NC(=O)c4cc(=O)[nH]c(=O)[nH]4)c3)cs2)s1
[1]
  inhibition at 0.001 µM: -5%
  inhibition at 0.01 µM: -14%

## CNC(=O)Nc1nc(N)c(-c2nc(-c3cccc(NC(=O)C4CCCO4)c3)cs2)s1 (centres unmarked)
[1]
  inhibition at 0.001 µM: 183%
  inhibition at 0.01 µM: -33%

## CNC(=O)Nc1nc(N)c(-c2nc(-c3cccc(NC(=O)CCCN(C)C)c3)cs2)s1
[1]
  inhibition at 0.001 µM: -12%
  inhibition at 0.01 µM: -40%

## C=CCC(=O)Nc1cccc(-c2csc(-c3sc(NC(=O)NC)nc3N)n2)c1
[1]
  inhibition at 0.001 µM: 8%
  inhibition at 0.01 µM: -13%

## CNC(=O)Nc1nc(N)c(-c2nc(-c3cccc(NC(=O)C4CCN(C(C)=O)CC4)c3)cs2)s1
[1]
  inhibition at 0.001 µM: 23%
  inhibition at 0.01 µM: -15%

## CNC(=O)Nc1nc(N)c(-c2nc(-c3cccc(NC(=O)C4CCOC4)c3)cs2)s1 (centres unmarked)
[1]
  inhibition at 0.001 µM: -5%
  inhibition at 0.01 µM: -8%

## CNC(=O)Nc1nc(N)c(-c2nc(-c3cccc(NC(=O)/C=C/c4cccc(OC)c4)c3)cs2)s1
[1]
  inhibition at 0.001 µM: -1%
  inhibition at 0.01 µM: -12%

## CNC(=O)Nc1nc(N)c(-c2nc(-c3cccc(NC(=O)C(O)c4ccccc4)c3)cs2)s1 (centres unmarked)
[1]
  inhibition at 0.001 µM: -14%
  inhibition at 0.01 µM: -11%

## CNC(=O)Nc1nc(N)c(-c2nc(-c3cccc(NC(=O)C(=O)Cc4ccccc4)c3)cs2)s1
[1]
  inhibition at 0.001 µM: 8%
  inhibition at 0.01 µM: 25%

## CNC(=O)Nc1nc(N)c(-c2nc(-c3cccc(NC(=O)C4C(C=C(C)C)C4(C)C)c3)cs2)s1 (centres unmarked)
[1]
  inhibition at 0.001 µM: -17%
  inhibition at 0.01 µM: 12%

## CNC(=O)Nc1nc(N)c(-c2nc(-c3cccc(NC(=O)[C@@]45C[C@@H]6C[C@@H]4CC6(C)C5)c3)cs2)s1
[1]
  inhibition at 0.001 µM: -20%
  inhibition at 0.01 µM: 2%

## CNC(=O)Nc1nc(N)c(-c2nc(-c3cccc(NC(=O)Cc4cccnc4)c3)cs2)s1
[1]
  inhibition at 0.001 µM: -7%
  inhibition at 0.01 µM: -27%

## CNC(=O)Nc1nc(N)c(-c2nc(-c3cccc(NC(=O)Cc4cc(F)ccc4F)c3)cs2)s1
[1]
  inhibition at 0.001 µM: -1%
  inhibition at 0.01 µM: 4%

## CNC(=O)Nc1nc(N)c(-c2nc(-c3cccc(NC(=O)Cc4cc(F)cc(F)c4)c3)cs2)s1
[1]
  inhibition at 0.001 µM: -5%
  inhibition at 0.01 µM: -10%

## CNC(=O)Nc1nc(N)c(-c2nc(-c3cccc(NC(=O)Cc4cccc(OC)c4)c3)cs2)s1
[1]
  inhibition at 0.001 µM: 25%
  inhibition at 0.01 µM: -31%

## CNC(=O)Nc1nc(N)c(-c2nc(-c3cccc(NC(=O)C4C[C@H]5C=C[C@@H]4C5)c3)cs2)s1 (some centres unmarked)
[1]
  inhibition at 0.001 µM: 4%
  inhibition at 0.01 µM: -18%

## CNC(=O)Nc1nc(N)c(-c2nc(-c3cccc(NC(=O)CCc4ccc(C)cc4)c3)cs2)s1
[1]
  inhibition at 0.001 µM: 2%

## CNC(=O)Nc1nc(N)c(-c2nc(-c3cccc(NC(=O)c4cc(C)on4)c3)cs2)s1
[1]
  inhibition at 0.001 µM: 14%
  inhibition at 0.01 µM: 10%

## CNC(=O)Nc1nc(N)c(-c2nc(-c3cccc(NC(=O)C(=O)CC(C)C)c3)cs2)s1
[1]
  inhibition at 0.001 µM: 3%
  inhibition at 0.01 µM: 11%

## CNC(=O)Nc1nc(N)c(-c2nc(-c3cccc(NC(=O)C4CCCC(OC)C4)c3)cs2)s1 (centres unmarked)
[1]
  inhibition at 0.001 µM: 6%
  inhibition at 0.01 µM: 5%

## CNC(=O)Nc1nc(N)c(-c2nc(-c3cccc(NC(=O)C4(c5ccc(C)cc5)CC4)c3)cs2)s1
[1]
  inhibition at 0.001 µM: -8%
  inhibition at 0.01 µM: -6%

## CNC(=O)Nc1nc(N)c(-c2nc(-c3cccc(NC(=O)Cc4sc(S)nc4C)c3)cs2)s1
[1]
  inhibition at 0.001 µM: 18%
  inhibition at 0.01 µM: -25%

## CNC(=O)Nc1nc(N)c(-c2nc(-c3cccc(NC(=O)c4cc(C)n(O)n4)c3)cs2)s1
[1]
  inhibition at 0.001 µM: -2%
  inhibition at 0.01 µM: 13%

## CNC(=O)Nc1nc(N)c(-c2nc(-c3cccc(NC(=O)C4CC(=O)OC4(C)C)c3)cs2)s1 (centres unmarked)
[1]
  inhibition at 0.001 µM: 2%
  inhibition at 0.01 µM: -10%

## CNC(=O)Nc1nc(N)c(-c2nc(-c3cccc(NC(=O)c4cc(C)n[nH]4)c3)cs2)s1
[1]
  inhibition at 0.001 µM: 32%
  inhibition at 0.01 µM: -22%

## CNC(=O)Nc1nc(N)c(-c2nc(-c3cccc(NC(=O)c4cc(C)nn4C)c3)cs2)s1
[1]
  inhibition at 0.001 µM: 10%
  inhibition at 0.01 µM: 39%

## CNC(=O)Nc1nc(N)c(-c2nc(-c3cccc(NC(=O)c4cc(C)[nH]c4C)c3)cs2)s1
[1]
  inhibition at 0.001 µM: 25%
  inhibition at 0.01 µM: -13%

## CNC(=O)Nc1nc(N)c(-c2nc(-c3cccc(NC(=O)c4cccc5cc[nH]c45)c3)cs2)s1
[1]
  inhibition at 0.001 µM: -11%
  inhibition at 0.01 µM: 60%

## C/C=C(\C)C(=O)Nc1cccc(-c2csc(-c3sc(NC(=O)NC)nc3N)n2)c1
[1]
  inhibition at 0.001 µM: 5%
  inhibition at 0.01 µM: 17%

## CNC(=O)Nc1nc(N)c(-c2nc(-c3cccc(NC(=O)c4cc(=O)cco4)c3)cs2)s1
[1]
  inhibition at 0.001 µM: 47%
  inhibition at 0.01 µM: 27%

## CCCN(CCC)CC(=O)Nc1cccc(-c2csc(-c3sc(NC(=O)NC)nc3N)n2)c1
[1]
  inhibition at 0.001 µM: 10%
  inhibition at 0.01 µM: 0%

## CC/C=C(\C)C(=O)Nc1cccc(-c2csc(-c3sc(NC(=O)NC)nc3N)n2)c1
[1]
  inhibition at 0.001 µM: -12%
  inhibition at 0.01 µM: 67%

## CNC(=O)Nc1nc(N)c(-c2nc(-c3cccc(NC(=O)Cc4c(F)cccc4F)c3)cs2)s1
[1]
  inhibition at 0.001 µM: -3%
  inhibition at 0.01 µM: -2%

## CNC(=O)Nc1nc(N)c(-c2nc(-c3cccc(NC(=O)C4C(C)(C)C4(C)C)c3)cs2)s1
[1]
  inhibition at 0.001 µM: 11%
  inhibition at 0.01 µM: 21%

## CCNc1ccccc1C(=O)Nc1cccc(-c2csc(-c3sc(NC(=O)NC)nc3N)n2)c1
[1]
  inhibition at 0.001 µM: -1%
  inhibition at 0.01 µM: 29%

## COc1cc(Nc2nc(N)c(-c3nc(-c4cc(NC(=O)CC5CCC6CCC5C6)ccc4C)no3)s2)cc(OC)c1OC (centres unmarked)
[2]
  inhibition at 0.001 µM: -7%
  inhibition at 0.01 µM: 47%

## COc1cc(Nc2nc(N)c(-c3nc(-c4cc(NC(=O)CCN5CCCCC5)ccc4C)no3)s2)cc(OC)c1OC
[2]
  inhibition at 0.001 µM: 3%
  inhibition at 0.01 µM: 28%

## COc1cc(Nc2nc(N)c(-c3nc(-c4cc(NC(=O)CCC(=O)N5CCCC5)ccc4C)no3)s2)cc(OC)c1OC
[2]
  inhibition at 0.001 µM: -18%
  inhibition at 0.01 µM: -20%

## CCc1ccccc1C(=O)Nc1ccc(C)c(-c2noc(-c3sc(Nc4cc(OC)c(OC)c(OC)c4)nc3N)n2)c1
[2]
  inhibition at 0.001 µM: -26%
  inhibition at 0.01 µM: 59%

## COc1cc(Nc2nc(N)c(-c3nc(-c4cc(NC(=O)C5=CCCN(C)C5)ccc4C)no3)s2)cc(OC)c1OC
[2]
  inhibition at 0.001 µM: 5%
  inhibition at 0.01 µM: 1%

## COc1cc(Nc2nc(N)c(-c3nc(-c4cc(NC(=O)C5CCCN5C(C)=O)ccc4C)no3)s2)cc(OC)c1OC (centres unmarked)
[2]
  inhibition at 0.001 µM: -13%
  inhibition at 0.01 µM: -24%

## COc1cc(Nc2nc(N)c(-c3nc(-c4cc(NC(=O)/C=C/C5CC[C@H]6C=C[C@@H]5C6)ccc4C)no3)s2)cc(OC)c1OC (some centres unmarked)
[2]
  inhibition at 0.001 µM: -12%
  inhibition at 0.01 µM: 25%

## CCC(C(=O)Nc1ccc(C)c(-c2noc(-c3sc(Nc4cc(OC)c(OC)c(OC)c4)nc3N)n2)c1)c1ccccc1C (centres unmarked)
[2]
  inhibition at 0.001 µM: -14%
  inhibition at 0.01 µM: 13%

## COc1cc(Nc2nc(N)c(-c3nc(-c4cc(NC(=O)C[C@@H]5OC(C)(C)OC5=O)ccc4C)no3)s2)cc(OC)c1OC
[2]
  inhibition at 0.001 µM: -2%
  inhibition at 0.01 µM: 3%

## COc1cc(Nc2nc(N)c(-c3nc(-c4cc(NC(=O)c5ccc(C(C)(C)C)o5)ccc4C)no3)s2)cc(OC)c1OC
[2]
  inhibition at 0.001 µM: -9%
  inhibition at 0.01 µM: 48%

## COc1cc(Nc2nc(N)c(-c3nc(-c4cc(NC(=O)/C=C(\C)c5ccccc5C)ccc4C)no3)s2)cc(OC)c1OC
[2]
  inhibition at 0.001 µM: -27%
  inhibition at 0.01 µM: 8%

## COc1cc(Nc2nc(N)c(-c3nc(-c4cc(NC(=O)c5ccc(C(C)=O)s5)ccc4C)no3)s2)cc(OC)c1OC
[2]
  inhibition at 0.001 µM: 35%
  inhibition at 0.01 µM: 93%

## COc1cc(Nc2nc(N)c(-c3nc(-c4cc(NC(=O)C(C)OC=C(C)C)ccc4C)no3)s2)cc(OC)c1OC (centres unmarked)
[2]
  inhibition at 0.001 µM: -21%
  inhibition at 0.01 µM: 11%

## COc1cc(Nc2nc(N)c(-c3nc(-c4cc(NC(=O)/C=C/C(=O)NCC5CC5)ccc4C)no3)s2)cc(OC)c1OC
[2]
  inhibition at 0.001 µM: 39%
  inhibition at 0.01 µM: 5%

## COc1ccc(C#N)c(C(=O)Nc2ccc(C)c(-c3noc(-c4sc(Nc5cc(OC)c(OC)c(OC)c5)nc4N)n3)c2)c1
[2]
  inhibition at 0.001 µM: 9%
  inhibition at 0.01 µM: 1%

## COc1cc(Nc2nc(N)c(-c3nc(-c4cc(NC(=O)c5cc(C)cc(=O)o5)ccc4C)no3)s2)cc(OC)c1OC
[2]
  inhibition at 0.001 µM: -2%
  inhibition at 0.01 µM: 66%

## COc1cc(Nc2nc(N)c(-c3nc(-c4cc(NC(=O)Cc5cn(C)cn5)ccc4C)no3)s2)cc(OC)c1OC
[2]
  inhibition at 0.001 µM: -7%
  inhibition at 0.01 µM: -14%

## COc1cc(Nc2nc(N)c(-c3nc(-c4cc(NC(=O)CC(C)(C)NC(C)=O)ccc4C)no3)s2)cc(OC)c1OC
[2]
  inhibition at 0.001 µM: 2%
  inhibition at 0.01 µM: -11%

## CCO/C(C)=C/C(=O)Nc1ccc(C)c(-c2noc(-c3sc(Nc4cc(OC)c(OC)c(OC)c4)nc3N)n2)c1
[2]
  inhibition at 0.001 µM: 21%
  inhibition at 0.01 µM: 78%

## COc1cc(Nc2nc(N)c(-c3nc(-c4cc(NC(=O)[C@H]5C[C@@H](C)[C@@H](C)[C@H]5C)ccc4C)no3)s2)cc(OC)c1OC
[2]
  inhibition at 0.001 µM: -21%
  inhibition at 0.01 µM: 5%

## C/C=C/C(=O)Nc1ccc(C)c(-c2noc(-c3sc(Nc4cc(OC)c(OC)c(OC)c4)nc3N)n2)c1
[2]
  inhibition at 0.001 µM: 9%
  inhibition at 0.01 µM: 65%

## COc1cc(Nc2nc(N)c(-c3nc(-c4cc(NC(=O)C[C@H](C)c5ccccc5)ccc4C)no3)s2)cc(OC)c1OC
[2]
  inhibition at 0.001 µM: -30%
  inhibition at 0.01 µM: 24%

## COc1cc(Nc2nc(N)c(-c3nc(-c4cc(NC(=O)CC5=CCCCC5)ccc4C)no3)s2)cc(OC)c1OC
[2]
  inhibition at 0.001 µM: -12%
  inhibition at 0.01 µM: 43%

## COc1cc(Nc2nc(N)c(-c3nc(-c4cc(NC(=O)C(=O)C5=CCCCC5)ccc4C)no3)s2)cc(OC)c1OC
[2]
  inhibition at 0.001 µM: -36%
  inhibition at 0.01 µM: 11%
